Experimental data published in patent EP0531958A1, “6-Aminoquinolones, their synthesis and their use as antibacterial agents” (MEDIOLANUM FARMACEUTICI S.P.A., priority 1991, dated 1993).
In brackets after ≈: the same amount, converted by molar mass. Read-outs that look alike come from different tables or passages of the source.

Legend:
Type in all cases: cell-based
[1] = system: Gram +; assay: MIC test, average over the 5 gram-positive test germs; details: 24 h
Description: (§1) As to the antibacterial activity, there was determined the Least (Minimum) Inhibiting Concentration (MIC), by working according to the following operative conditions.
(§2) There were used suspensions of test germs (5 gram-positive and 15 gram-negative) having a known titre, kept freezed at -80°C and diluted, at the time of use, in peptonized water up to a concentration of 1-2.10⁷ cfu/ml.
(§3) A few mg of the products, according to the invention were weighed sufficient for preparing parent solutions in DMSO + NaOH (1N) containing 2560 µg/ml (64µg/ml/dish). From the thus prepared parent solutions there were prepared 12 serial dilutions (1:2) down to the concentration of 1.25 µg/ml.
(§4) 0.5 ml of the different dilutions of each product were distributed on dishes containing 19.5 ml of agarized medium (TSA), maintained in a fluid state at the temperature of 50°C. After slight stirring, the dishes were made to solidify and dry under hood (laminar flow).
(§5) The MIC tests (Least or "Minimum" Inhibiting Concentration) were performed by using a Steers multiwell inoculator having 36 wells, each containing 200 µl of bacterial suspension.
(§6) After inoculation, the dishes were placed into a thermostat and checked after 24 h of incubation at 35°C.
(§7) The MIC is defined as the lowermost product concentration (µg/ml) inhibiting the visible growth of the microorganisms.

[2] = system: Acinebacter calcoloaceticus OSMPV 1130; assay: MIC test, agar dilution with Steers multiwell inoculator; details: TSA dishes, 24 h at 35°C, read-out: Minimum Inhibiting Concentration
Description: as §1, §2, §3, §4, §5, §6, §7

[3] = system: Enterobacter cloacae OMNF 1153; assay: as above; details: OMNF1153, TSA dishes, 24 h at 35°C, read-out: Minimum Inhibiting Concentration
Description: as §1, §2, §3, §4, §5, §6, §7

[4] = system: Enterobacter cloacae OMNF 1174; assay: as above; details: OMNF1174, TSA dishes, 24 h at 35°C, read-out: Minimum Inhibiting Concentration
Description: as §1, §2, §3, §4, §5, §6, §7

[5] = system: Escherichia coli 120; assay: as above; details: TSA dishes, 24 h at 35°C, read-out: Minimum Inhibiting Concentration
Description: as §1, §2, §3, §4, §5, §6, §7

[6] = system: Escherichia coli ATCC 8739; assay: as above; details: ATCC8739, TSA dishes, 24 h at 35°C, read-out: Minimum Inhibiting Concentration
Description: as §1, §2, §3, §4, §5, §6, §7

[7] = system: Escherichia coli CNUR 1; assay: as above; details: CNUR1, TSA dishes, 24 h at 35°C, read-out: Minimum Inhibiting Concentration
Description: as §1, §2, §3, §4, §5, §6, §7

[8] = system: Escherichia coli CNUR 8; assay: as above; details: CNUR8, TSA dishes, 24 h at 35°C, read-out: Minimum Inhibiting Concentration
Description: as §1, §2, §3, §4, §5, §6, §7

[9] = system: Escherichia coli ISF 432; assay: as above; details: ISF432, TSA dishes, 24 h at 35°C, read-out: Minimum Inhibiting Concentration
Description: as §1, §2, §3, §4, §5, §6, §7

[10] = system: Klebsiella pneumoniae ATCC 10031; assay: as above; details: ATCC10031, TSA dishes, 24 h at 35°C, read-out: Minimum Inhibiting Concentration
Description: as §1, §2, §3, §4, §5, §6, §7

[11] = system: Proteus vulgaris CNUR 6; assay: as above; details: CNUR6, TSA dishes, 24 h at 35°C, read-out: Minimum Inhibiting Concentration
Description: as §1, §2, §3, §4, §5, §6, §7

[12] = system: Providencia stuardii CNUR 5; assay: as above; details: CNUR5, TSA dishes, 24 h at 35°C, read-out: Minimum Inhibiting Concentration
Description: as §1, §2, §3, §4, §5, §6, §7

[13] = system: Pseudomonas aeruginosa ATCC 9027; assay: as above; details: ATCC9027, TSA dishes, 24 h at 35°C, read-out: Minimum Inhibiting Concentration
Description: as §1, §2, §3, §4, §5, §6, §7

[14] = system: Pseudomonas aeruginosa CNUR 2; assay: as above; details: CNUR2, TSA dishes, 24 h at 35°C, read-out: Minimum Inhibiting Concentration
Description: as §1, §2, §3, §4, §5, §6, §7

[15] = system: Pseudomonas aeruginosa CNUR 4; assay: as above; details: CNUR4, TSA dishes, 24 h at 35°C, read-out: Minimum Inhibiting Concentration
Description: as §1, §2, §3, §4, §5, §6, §7

[16] = system: Shighella enteritidis; assay: as above; details: TSA dishes, 24 h at 35°C, read-out: Minimum Inhibiting Concentration
Description: as §1, §2, §3, §4, §5, §6, §7

[17] = system: Staphylococcus aureus ATCC 6538; assay: as above; details: ATCC6538, TSA dishes, 24 h at 35°C, read-out: Minimum Inhibiting Concentration
Description: as §1, §2, §3, §4, §5, §6, §7

[18] = system: Staphylococcus aureus MPR 5; assay: as above; details: MPR5, TSA dishes, 24 h at 35°C, read-out: Minimum Inhibiting Concentration
Description: as §1, §2, §3, §4, §5, §6, §7

[19] = system: Staphylococcus epidermidis CPHL A2; assay: as above; details: CPHLA2, TSA dishes, 24 h at 35°C, read-out: Minimum Inhibiting Concentration
Description: as §1, §2, §3, §4, §5, §6, §7

[20] = system: Staphylococcus epidermidis HCF Berset C.; assay: as above; details: TSA dishes, 24 h at 35°C, read-out: Minimum Inhibiting Concentration
Description: as §1, §2, §3, §4, §5, §6, §7

[21] = system: Streptococcus facealis LEP Br.; assay: as above; details: TSA dishes, 24 h at 35°C, read-out: Minimum Inhibiting Concentration
Description: as §1, §2, §3, §4, §5, §6, §7

[22] = system: Gram -; assay: MIC test, average over the 15 gram-negative test germs; details: 24 h
Description: as §1, §2, §3, §4, §5, §6, §7

[23] = geometrical average of the MIC over the 5 Gram + strains, read-out: Geometrical Average
[24] = geometrical average of the MIC over the 15 Gram - strains, read-out: Geometrical Average
[25] = mean log of the MIC over the 15 Gram - strains, read-out: Log (converted)

Work on `Nc1cc2c(=O)c(C(=O)O)cn(C3CC3)c2cc1N1CCSCC1` [Compound 15] yielded an MIC [1, 23] of 1.32 µg/mL, an MIC ([1]; read-out: Log (converted)) of 1.32 µg/mL (≈ 3.82 µM) and an MIC [2] of 1 µg/mL (≈ 2.89 µM). The MIC [3] was 0.5 µg/mL (≈ 1.45 µM), the MIC [4] was 0.5 µg/mL (≈ 1.45 µM) and the MIC [5] was 0.12 µg/mL (≈ 0.347 µM). The MIC [6] was 0.03 µg/mL (≈ 0.0868 µM), the MIC [7] was 0.5 µg/mL (≈ 1.45 µM) and the MIC [8] was 0.12 µg/mL (≈ 0.347 µM). It also gave an MIC [9] of 0.03 µg/mL (≈ 0.0868 µM), an MIC [10] of 0.03 µg/mL (≈ 0.0868 µM) and an MIC [11] of 128 µg/mL (≈ 371 µM). The MIC [12] was 1 µg/mL (≈ 2.89 µM), the MIC [13] was 2 µg/mL (≈ 5.79 µM) and the MIC [14] was 16 µg/mL (≈ 46.3 µM). It also gave an MIC [15] of 128 µg/mL (≈ 371 µM), an MIC [16] of 0.5 µg/mL (≈ 1.45 µM) and an MIC [17] of 0.5 µg/mL (≈ 1.45 µM). It also gave an MIC [18] of 0.5 µg/mL (≈ 1.45 µM), an MIC [19] of 1 µg/mL (≈ 2.89 µM) and an MIC [20] of 2 µg/mL (≈ 5.79 µM). It also gave an MIC [21] of 8 µg/mL (≈ 23.2 µM), an MIC [22, 24] of 0.748 µg/mL (≈ 2.17 µM) and an MIC [22, 25] of 0.748 µg/mL (≈ 2.17 µM).
`CN1CCN(c2c(N)cc3c(=O)c(C(=O)O)cn(C4CC4)c3c2F)CC1` [Compound 22] gave an MIC ([1]; read-out: Log (converted)) of 8 µg/mL (≈ 22.2 µM), an MIC [2] of 8 µg/mL (≈ 22.2 µM) and an MIC [3] of 0.25 µg/mL (≈ 0.694 µM). The MIC [4] was 0.25 µg/mL (≈ 0.694 µM), the MIC [5] was 0.06 µg/mL (≈ 0.166 µM) and the MIC [6] was 1 µg/mL (≈ 2.77 µM). It also gave an MIC [7] of 0.12 µg/mL (≈ 0.333 µM), an MIC [8] of 0.12 µg/mL (≈ 0.333 µM) and an MIC [9] of 0.06 µg/mL (≈ 0.166 µM). For the same molecule, the MIC [10] was 0.06 µg/mL (≈ 0.166 µM), the MIC [11] was 32 µg/mL (≈ 88.8 µM) and the MIC [12] was 4 µg/mL (≈ 11.1 µM). The MIC [13] was 2 µg/mL (≈ 5.55 µM), the MIC [14] was 8 µg/mL (≈ 22.2 µM) and the MIC [15] was 32 µg/mL (≈ 88.8 µM). It also gave an MIC [16] of 0.25 µg/mL (≈ 0.694 µM), an MIC [17] of 4 µg/mL (≈ 11.1 µM) and an MIC [18] of 4 µg/mL (≈ 11.1 µM). The MIC [19] was 4 µg/mL (≈ 11.1 µM), the MIC [20] was 8 µg/mL (≈ 22.2 µM) and the MIC [21] was 64 µg/mL (≈ 178 µM). It also gave an MIC [22, 24] of 0.783 µg/mL (≈ 2.17 µM) and an MIC [22, 25] of 0.783 µg/mL (≈ 2.17 µM).
`Nc1cc2c(=O)c(C(=O)O)cn(C3CC3)c2c(F)c1N1CCSCC1` [Compound 23] showed an MIC [1, 23] of 0.758 µg/mL, an MIC ([1]; read-out: Log (converted)) of 0.759 µg/mL (≈ 2.09 µM) and an MIC [2] of 1 µg/mL (≈ 2.75 µM). For the same molecule, the MIC [3] was 1 µg/mL (≈ 2.75 µM), the MIC [4] was 1 µg/mL (≈ 2.75 µM) and the MIC [5] was 0.25 µg/mL (≈ 0.688 µM). It also gave an MIC [6] of 0.12 µg/mL (≈ 0.33 µM), an MIC [7] of 0.5 µg/mL (≈ 1.38 µM) and an MIC [8] of 0.25 µg/mL (≈ 0.688 µM). For the same molecule, the MIC [9] was 0.06 µg/mL (≈ 0.165 µM), the MIC [10] was 0.03 µg/mL (≈ 0.0826 µM) and the MIC [11] was 64 µg/mL (≈ 176 µM). For the same molecule, the MIC [12] was 0.5 µg/mL (≈ 1.38 µM), the MIC [13] was 4 µg/mL (≈ 11 µM) and the MIC [14] was 8 µg/mL (≈ 22 µM). For the same molecule, the MIC [15] was 64 µg/mL (≈ 176 µM), the MIC [16] was 4 µg/mL (≈ 11 µM) and the MIC [17] was 0.5 µg/mL (≈ 1.38 µM). It also gave an MIC [18] of 0.25 µg/mL (≈ 0.688 µM), an MIC [19] of 0.5 µg/mL (≈ 1.38 µM) and an MIC [20] of 1 µg/mL (≈ 2.75 µM). The MIC [21] was 4 µg/mL (≈ 11 µM), the MIC [22, 24] was 1.04 µg/mL (≈ 2.85 µM) and the MIC [22, 25] was 1.04 µg/mL (≈ 2.85 µM).
For `CN1CCN(c2c(N)c(N)c3c(=O)c(C(=O)O)cn(C4CC4)c3c2F)CC1` [Compound 28], the MIC [1, 23] was 3.03 µg/mL, the MIC ([1]; read-out: Log (converted)) was 3.03 µg/mL (≈ 8.08 µM) and the MIC [2] was 2 µg/mL (≈ 5.33 µM). The MIC [3] was 0.25 µg/mL (≈ 0.666 µM), the MIC [4] was 0.12 µg/mL (≈ 0.32 µM) and the MIC [5] was 0.12 µg/mL (≈ 0.32 µM). For the same molecule, the MIC [6] was 0.03 µg/mL (≈ 0.0799 µM), the MIC [7] was 0.25 µg/mL (≈ 0.666 µM) and the MIC [8] was 0.12 µg/mL (≈ 0.32 µM). It also gave an MIC [9] of 0.03 µg/mL (≈ 0.0799 µM), an MIC [10] of 0.03 µg/mL (≈ 0.0799 µM) and an MIC [11] of 64 µg/mL (≈ 170 µM). It also gave an MIC [12] of 2 µg/mL (≈ 5.33 µM), an MIC [13] of 4 µg/mL (≈ 10.7 µM) and an MIC [14] of 8 µg/mL (≈ 21.3 µM). The MIC [15] was 64 µg/mL (≈ 170 µM), the MIC [16] was 0.25 µg/mL (≈ 0.666 µM) and the MIC [17] was 2 µg/mL (≈ 5.33 µM). The MIC [18] was 2 µg/mL (≈ 5.33 µM), the MIC [19] was 4 µg/mL (≈ 10.7 µM) and the MIC [20] was 4 µg/mL (≈ 10.7 µM). It also gave an MIC [21] of 4 µg/mL (≈ 10.7 µM), an MIC [22, 24] of 0.592 µg/mL (≈ 1.58 µM) and an MIC [22, 25] of 0.592 µg/mL (≈ 1.58 µM).
